Assay results taken from PubChem BioAssay (NCI).
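Grown in 96-well plates, cells were treated for 48 hours with each compound at five concentrations. Insufficient inhibition: endpoint recorded as highest concentration tested. TGI: concentration producing complete growth inhibition.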

What was measured:
Test in all cases: NCI tumour cell line growth inhibition, 48 h
[1] = test system: SNB-75 CNS
[2] = test system: OVCAR-4 ovarian
[3] = test system: P388 leukemia
[4] = test system: SK-MEL-5 melanoma
[5] = test system: DMS 273 small cell lung
[6] = test system: SN12K1 renal
[7] = test system: NCI-H226 lung
[8] = test system: SF-539 CNS
[9] = test system: M19-MEL melanoma
[10] = test system: HOP-92 NSCLC
[11] = test system: RXF 393 renal
[12] = test system: OVCAR-5 ovarian
[13] = test system: NCI-H522 lung
[14] = test system: SF-268 CNS
[15] = test system: P388/ADR leukemia
[16] = test system: KM12 colon
[17] = test system: CCRF-CEM leukemia
[18] = test system: HCT-116 colon
[19] = test system: MALME-3M melanoma
[20] = test system: SW-620 colon
[21] = test system: SK-MEL-2 melanoma
[22] = test system: SK-OV-3 ovarian
[23] = test system: HL-60(TB) leukemia
[24] = test system: HCT-15 colon
[25] = test system: HOP-18 NSCLC
[26] = test system: UACC-62 melanoma
[27] = test system: DLD-1 colon
[28] = test system: MCF7 breast
[29] = test system: U251 CNS
[30] = test system: SNB-19 CNS
[31] = test system: EKVX NSCLC
[32] = test system: OVCAR-8 ovarian
[33] = test system: COLO 205 colon
[34] = test system: LOX IMVI melanoma
[35] = test system: K-562 leukemia
[36] = test system: CAKI-1 renal
[37] = test system: OVCAR-3 ovarian
[38] = test system: HOP-62 NSCLC
[39] = test system: SNB-78 CNS
[40] = test system: NCI-H460 lung
[41] = test system: NCI-H23 lung
[42] = test system: XF 498 CNS
[43] = test system: NCI/ADR-RES ovarian
[44] = test system: KM20L2 colon
[45] = test system: IGROV1 ovarian
[46] = test system: UACC-257 melanoma
[47] = test system: MOLT-4 leukemia
[48] = test system: UO-31 renal
[49] = test system: SN12C renal
[50] = test system: SF-295 CNS
[51] = test system: HT29 colon
[52] = test system: A498 renal
[53] = test system: SK-MEL-28 melanoma
[54] = test system: HCC-2998 colon
[55] = test system: A549 NSCLC
[56] = test system: RPMI-8226 leukemia

Measured: TGI

CC1(C)S[C@@H]2[C@H](NC(=O)CCC[C@@H](N)C(=O)O)C(=O)N2[C@H]1C(=O)O
> 42 µM: [42]
> 28.1 µM: [12]
> 21.6 µM: [4]
> 31.6 µM: [20] | [43]
> 50 µM: [1] | [2] | [3] | [5] | [6] | [7] | [8] | [9] | [10] | [11] | [13] | [14] | [15] | [16] | [17] | [18] | [19] | [21] | [23] | [24] | [25] | [26] | [27] | [28] | [30] | [31] | [33] | [34] | [35] | [36] | [37] | [38] | [39] | [40] | [41] | [45] | [46] | [47] | [48] | [49] | [50] | [51] | [52] | [53] | [54] | [55] | [56]
> 28.4 µM: [29]
> 19.9 µM: [32]
49.9 µM: [22]
> 28 µM: [44]
